# Assay results from US20250066369A1, “BICYCLIC PHTHALAZIN-1(2H)-ONE DERIVATIVES AND RELATED USES” (NodThera Limited, priority 2022, published 2025).
# Counter-ions that a name gives are not always drawn.
# Tested on: IL-1β release upon NLRP3 activation in peripheral blood mononuclear cells (PBMC)
# Assay: PBMC IC50 determination assay: inhibition of IL-1β release upon NLRP3 activation
# Type: cell-based
# Details: PBMC primed with LPS 3 h, compound 30 min, stimulated with ATP (5 mM) or nigericin (10 μM) 1 h, IL-1β by ELISA (Protocol A) or HTRF (Protocol B)
# Description: PBMC IC50 determination assay. The compounds of the present disclosure were tested for their inhibitory activity against IL-1β release upon NLRP3 activation in peripheral blood mononuclear cells (PBMC).
# Protocol A. PBMC were isolated from buffy coats by density gradient centrifugation on Histopaque-1077 (Sigma, cat no. 10771). Isolated cells were seeded into the wells of a 96-well plate and incubated for 3 h with lipopolysaccharide (LPS). Following medium exchange, the compounds of the present disclosure were added (a single compound per well) and the cells were incubated for 30 min. Next, the cells were stimulated either with ATP (5 mM) or nigericin (10 μM) for 1 h and the cell culture media from the wells were collected for further analysis.
# The release of IL-1β into the media was determined by a quantitative detection of IL-1β in the media using an IL-1β enzyme-linked immunosorbent assay (ELISA) Ready-SET-Go!, eBioscience cat. No. 88-7261-88. Briefly, in a first step, high affinity binding plates (Corning, Costar 9018 or NUNC Maxisorp Cat No. 44-2404) were coated overnight at 4° C. with specific capture antibody included in the kit (anti-human IL-1β ref. 14-7018-68). Subsequently, plates were blocked with blocking buffer for 1 h at room temperature (rt) and after washing with a buffer (PBS with 0.05% Tween-20) incubated with protein standard and culture media. After 2 h of incubation at rt, plates were washed and incubated with biotinylated detection antibody included in the kit (anti-human IL-1β Biotin ref 33-7110-68) for 1 h at rt. Plates were washed and incubated with HRP-streptavidin for 30 min at rt and washed again. The signal was developed after addition of 3,3′,5,5′-tetramethylbenzidine-peroxidase (TMB) until colour appeared and the reaction was stopped by 2 M H2SO4. A microplate spectrophotometer (BioTek) was used to detect signals with 450 nm. The detection range of IL-1β ELISA was […].
# Protocol B. PBMC were isolated from buffy coats by density gradient centrifugation on Histopaque-1077 (Sigma, cat no. 10771). Isolated cells were seeded into the wells (280,000 cells/well) of a 96-well plate and incubated for 3 h with lipopolysaccharide (LPS, 1 μg/mL diluted 1000× from a 1 mg/mL stock solution). The compounds of the present disclosure were added (a single compound per well) and the cells were incubated for 30 min. Next, the cells were stimulated with ATP (5 mM final concentration diluted 20× from a 100 mM stock solution) for 1 h and the cell culture media from the wells were collected for further analysis.
# The release of IL-1β into the media was determined by quantitative detection of IL-1β in the media using HTRF®, CisBio cat. No. 62HIL1BPEH. Briefly, cell culture supernatant were dispensed directly into the assay plate containing antibodies labelled with the HTRF® donor and acceptor. A microplate spectrophotometer (BMG) was used to detect signals at 655 nm and 620 nm. The detection range of IL-1β HTRF® was 39-6500 μg/mL.
compound,measurement,setting,value
"CCn1cc2c(=O)n(CC(=O)N[C@H]3CCCN4CCC[C@@H]34)nc(C(C)C)c2n1 (stereo in doubt) [Compound 7, N-[Cis-1,2,3,5,6,7,8,8a-octahydroindolizin-8-yl]-2-(2-ethyl-7-isopropyl-4-oxo-pyrazolo[3,4-d]pyridazin-5-yl) acetamide hydrochloride]",IC50,PBMC,1 to 3 µM
"CC(C)c1nn(CC(=O)N[C@@H]2CCCN(C3CC3)C2)c(=O)c2c1cnn2C [Compound 1, N-[(3R)-1-Cyclopropyl-3-piperidyl]-2-(4-isopropyl-1-methyl-7-oxo-pyrazolo[3,4-d]pyridazin-6-yl)acetamide]",IC50,PBMC,3 to 10 µM
"CC(C)c1nn(CC(=O)N[C@@H]2CCCN(C3CC3)C2)c(=O)c2cnn(C)c12 [Compound 2, N-[(3R)-1-Cyclopropyl-3-piperidyl]-2-(7-isopropyl-1-methyl-4-oxo-pyrazolo[3,4-d]pyridazin-5-yl)acetamide]",IC50,PBMC,1 to 3 µM
"CC(C)c1nn(CC(=O)N[C@@H]2CCCN(C3CC3)C2)c(=O)c2cn(C)nc12 [Compound 3, N-[(3R)-1-Cyclopropyl-3-piperidyl]-2-(7-isopropyl-2-methyl-4-oxo-pyrazolo[3,4-d]pyridazin-5-yl)acetamide]",IC50,PBMC,3 to 10 µM
"CCn1cc2c(=O)n(CC(=O)Nc3ncncc3F)nc(C(C)C)c2n1 [Compound 5, 2-(2-Ethyl-7-isopropyl-4-oxo-pyrazolo[3,4-d]pyridazin-5-yl)-N-(5-fluoropyrimidin-4-yl) acetamide]",IC50,PBMC,1 to 3 µM
"CCn1cc2c(=O)n(CC(=O)N[C@@H]3CCCN(C)C3)nc(C(C)C)c2n1 [Compound 6, 2-(2-Ethyl-7-isopropyl-4-oxo-pyrazolo[3,4-d]pyridazin-5-yl)-N-[(3R)-1-methyl-3-piperidyl]acetamide]",IC50,PBMC,10 to 50 µM
"CCn1cc2c(=O)n(CC(=O)Nc3ncc(F)cn3)nc(C(C)C)c2n1 [Compound 8, 2-(2-Ethyl-7-isopropyl-4-oxo-pyrazolo[3,4-d]pyridazin-5-yl)-N-(5-fluoropyrimidin-2-yl)acetamide]",IC50,PBMC,0.1 to 1 µM
"CC(C)c1nn(CC(=O)N[C@@H]2CCCN(C3CC3)C2)c(=O)c2nn(C)cc12 [Compound 9, N-[(3R)-1-Cyclopropyl-3-piperidyl]-2-(4-isopropyl-2-methyl-7-oxo-pyrazolo[3,4-d]pyridazin-6-yl)acetamide]",IC50,PBMC,10 to 50 µM
"CC(C)c1nn(CC(=O)N[C@@H]2CCCN(C3CC3)C2)c(=O)c2cc(Cl)sc12 [Compound 10, 2-(2-Chloro-7-isopropyl-4-oxo-thieno [2,3-d]pyridazin-5-yl)-N-[(3R)-1-cyclopropyl-3-piperidyl]acetamide]",IC50,PBMC,1 to 3 µM
"CC(C)c1nn(CC(=O)N[C@@H]2CCCN(C3CC3)C2)c(=O)c2sc(Cl)cc12 [Compound 11, 2-(2-Chloro-4-isopropyl-7-oxo-thieno[2,3-d]pyridazin-6-yl)-N-[(3R)-1-cyclopropyl-3-piperidyl]acetamide]",IC50,PBMC,1 to 3 µM
"CCc1cc2c(=O)n(CC(=O)Nc3ncc(F)cn3)nc(C(C)C)c2s1 [Compound 12, 2-(2-Ethyl-7-isopropyl-4-oxo-thieno[2,3-d]pyridazin-5-yl)-N-(5-fluoropyrimidin-2-yl)acetamide]",IC50,PBMC,0.1 to 1 µM
"C=C(C)c1nn(CC(=O)N[C@@H]2CCCN(C3CC3)C2)c(=O)c2ncn(C)c12 [Compound 13, N-[(3R)-1-Cyclopropyl-3-piperidyl]-2-(7-isopropenyl-1-methyl-4-oxo-imidazo[4,5-d]pyridazin-5-yl)acetamide]",IC50,PBMC,10 to 50 µM
"CC(C)c1nn(CC(=O)N[C@@H]2CCCN(C3CC3)C2)c(=O)c2ncn(C)c12 [Compound 14, N-[(3R)-1-Cyclopropyl-3-piperidyl]-2-(7-isopropyl-1-methyl-4-oxo-imidazo[4,5-d]pyridazin-5-yl)acetamide]",IC50,PBMC,10 to 50 µM
"CC(C)c1nn(CC(=O)Nc2ncc(F)cn2)c(=O)c2cn(C(C)C)nc12 [Compound 15, 2-(2,7-Diisopropyl-4-oxo-pyrazolo[3,4-d]pyridazin-5-yl)-N-(5-fluoropyrimidin-2-yl)acetamide]",IC50,PBMC,0.1 to 1 µM
"CC(C)c1nn(CC(=O)Nc2ncc(F)cn2)c(=O)c2cn(C3CC3)nc12 [Compound 17, 2-(2-Cyclopropyl-7-isopropyl-4-oxo-pyrazolo[3,4-d]pyridazin-5-yl)-N-(5-fluoropyrimidin-2-yl) acetamide]",IC50,,0.1 to 1 µM
"CC(C)c1nn(CC(=O)NC2CC3(COC3)C2)c(=O)c2cnc(C3CC3)cc12 [Compound 18, 2-(7-Cyclopropyl-1-isopropyl-4-oxo-pyrido[3,4-d]pyridazin-3-yl)-N-(2-oxaspiro[3.3]heptan-6-yl)acetamide]",IC50,PBMC,10 to 50 µM
"Cc1nc(NC(=O)Cn2nc(C(C)C)c3cc(C4CC4)ncc3c2=O)ns1 [Compound 19, 2-(7-Cyclopropyl-1-isopropyl-4-oxo-pyrido[3,4-d]pyridazin-3-yl)-N-(5-methyl-1,2,4-thiadiazol-3-yl)acetamide]",IC50,PBMC,10 to 50 µM
"CCc1nn(CC(=O)Nc2ncc(F)cn2)c(=O)c2cn(CC)nc12 [Compound 20, 2-(2,7-Diethyl-4-oxo-pyrazolo[3,4-d]pyridazin-5-yl)-N-(5-fluoropyrimidin-2-yl)acetamide]",IC50,PBMC,10 to 50 µM
"CCc1nn(CC(=O)Nc2ncccn2)c(=O)c2cn(CC)nc12 [Compound 21, 2-(2,7-Diethyl-4-oxo-pyrazolo[3,4-d]pyridazin-5-yl)-N-pyrimidin-2-yl-acetamide]",IC50,PBMC,10 to 50 µM
"CCc1nn(CC(=O)NC2CC3(COC3)C2)c(=O)c2cn(CC)nc12 [Compound 22, 2-(2,7-Diethyl-4-oxo-pyrazolo[3,4-d]pyridazin-5-yl)-N-(2-oxaspiro[3.3]heptan-6-yl)acetamide]",IC50,PBMC,10 to 50 µM
"CCc1cc2c(=O)n(CC(=O)Nc3ncc(F)cn3)nc(C(C)C)c2o1 [Compound 23, 2-(2-Ethyl-7-isopropyl-4-oxo-furo [2,3-d]pyridazin-5-yl)-N-(5-fluoropyrimidin-2-yl) acetamide]",IC50,PBMC,0.1 to 1 µM
"CCc1cc2c(C(C)C)nn(CC(=O)Nc3ncc(F)cn3)c(=O)c2s1 [Compound 24, 2-(2-Ethyl-4-isopropyl-7-oxo-thieno[2,3-d]pyridazin-6-yl)-N-(5-fluoropyrimidin-2-yl) acetamide]",IC50,PBMC,≤ 0.1 µM
"CC(C)c1nn(CC(=O)NC2CC3(COC3)C2)c(=O)c2ccc(C3CC3)nc12 [Compound 25, 2-(2-Cyclopropyl-8-isopropyl-5-oxo-pyrido[2,3-d]pyridazin-6-yl)-N-(2-oxaspiro[3.3]heptan-6-yl)acetamide]",IC50,PBMC,1 to 3 µM
"Cc1nc(NC(=O)Cn2nc(C(C)C)c3nc(C4CC4)ccc3c2=O)ns1 [Compound 26, 2-(2-Cyclopropyl-8-isopropyl-5-oxo-pyrido[2,3-d]pyridazin-6-yl)-N-(5-methyl-1,2,4-thiadiazol-3-yl)acetamide]",IC50,PBMC,0.1 to 1 µM
"CC(C)c1nn(CC(=O)Nc2ncccn2)c(=O)c2ccc(C3CC3)nc12 [Compound 27, 2-(2-Cyclopropyl-8-isopropyl-5-oxo-pyrido [2,3-d]pyridazin-6-yl)-N-pyrimidin-2-yl-acetamide]",IC50,PBMC,0.1 to 1 µM
"CC(C)c1nn(CC(=O)Nc2ncc(F)cn2)c(=O)c2ccc(C3CC3)nc12 [Compound 28, 2-(2-Cyclopropyl-8-isopropyl-5-oxo-pyrido[2,3-d]pyridazin-6-yl)-N-(5-fluoropyrimidin-2-yl)acetamide]",IC50,PBMC,0.1 to 1 µM
"CC(C)c1nn(CC(=O)N[C@@H]2CCCN(C3CCC3)C2)c(=O)c2sc(Br)cc12 [Compound 29, 2-(2-Bromo-4-isopropyl-7-oxo-thieno[2,3-d]pyridazin-6-yl)-N-[(3R)-1-cyclobutyl-3-piperidyl]acetamide]",IC50,PBMC,0.1 to 1 µM
"CC(C)c1nn(CC(=O)N[C@@H]2CCCN(C3CCC3)C2)c(=O)c2sc(C#N)cc12 [Compound 30, 2-(2-Cyano-4-isopropyl-7-oxo-thieno[2,3-d]pyridazin-6-yl)-N-[(3R)-1-cyclobutyl-3-piperidyl]acetamide]",IC50,PBMC,3 to 10 µM
"COCc1cc2c(C(C)C)nn(CC(=O)N[C@@H]3CCCN(C4CCC4)C3)c(=O)c2s1 [Compound 31, N-[(3R)-1-Cyclobutyl-3-piperidyl]-2-[4-isopropyl-2-(methoxymethyl)-7-oxo-thieno [2,3-d]pyridazin-6-yl]acetamide hydrochloride]",IC50,PBMC,1 to 3 µM
